Measurements as given in ChEMBL document CHEMBL4270495, “Oleanane-, ursane-, and quinone methide friedelane-type triterpenoid derivatives: Recent advances in cancer treatment” (Eur J Med Chem, 2017).
pIC50: −log10 of the molar value.

Experiments:
ASPC1 = experiment: Growth inhibition of human AsPC1 cells incubated for 72 hrs by MTT assay; type: functional, cell-based; conditions: ASPC1, 72 h
MDA-MB-231 [1] = experiment: Inhibition of cell invasion in human MDA-MB-231 cells; type: functional
MDA-MB-231 [2] = experiment: Antiproliferative activity in human MDA-MB-231 cells assessed as reduction in cell viability incubated for 24 to 72 hrs by MTT assay; type: functional, cell-based
NIH3T3 = experiment: Cytotoxicity in mouse NIH/3T3 cells assessed as reduction in cell viability incubated for 96 hrs by SRB assay; type: cell-based; conditions: NIH3T3, 96 h
HT-29 [3] = experiment: Cytotoxicity in human HT-29 cells assessed as reduction in cell viability incubated for 96 hrs by SRB assay; type: functional, cell-based; conditions: HT-29, 96 h
A549 [4] = experiment: Cytotoxicity in human A549 cells assessed as reduction in cell viability incubated for 96 hrs by SRB assay; type: functional, cell-based; conditions: A549, 96 h
BJ = experiment: Cytotoxicity in human BJ cells assessed as reduction in cell viability incubated for 72 hrs by MTT assay; type: functional, cell-based
HT-29 [5] = experiment: Cytotoxicity in human HT-29 cells assessed as reduction in cell viability incubated for 72 hrs by MTT assay; type: functional, cell-based; conditions: HT-29, 72 h
HeLa [6] = experiment: Cytotoxicity in human HeLa cells assessed as reduction in cell viability incubated for 72 hrs by MTT assay; type: functional, cell-based
MCF7 [7] = experiment: Cytotoxicity in human MCF7 cells assessed as reduction in cell viability incubated for 72 hrs by MTT assay; type: functional, cell-based; conditions: MCF7, 72 h
PC-3 = experiment: Cytotoxicity in human PC3 cells assessed as reduction in cell viability incubated for 48 hrs by XTT assay; type: functional, cell-based; conditions: PC-3, 48 h
[8] = Cytotoxicity in human […] cells assessed as reduction in cell viability incubated for 72 hrs by MTT assay; type: functional, cell-based
HMEC = experiment: Cytotoxicity in human HMEC cells assessed as reduction in cell viability incubated for 48 hrs by SRB assay; type: cell-based
[9] = Cytotoxicity in human HELF cells assessed as reduction in cell viability incubated for 24 hrs by MTT assay; type: cell-based
MCF7 [10] = experiment: Cytotoxicity in human MCF7 cells assessed as reduction in cell viability incubated for 48 hrs by SRB assay; type: functional, cell-based; conditions: MCF7, 48 h
AGS [11] = experiment: Cytotoxicity in human AGS cells assessed as reduction in cell viability incubated for 24 hrs by MTT assay; type: functional, cell-based
MDA-MB-231 [12] = experiment: Cytotoxicity in human MDA-MB-231 cells assessed as reduction in cell viability incubated for 48 hrs by SRB assay; type: functional; conditions: MDA-MB-231, 48 h
A549 [13] = experiment: Cytotoxicity in human A549 cells assessed as reduction in cell viability incubated for 24 hrs by MTT assay; type: functional, cell-based; conditions: A549, 24 h
MCF7 [14] = experiment: Cytotoxicity in human MCF7 cells assessed as reduction in cell viability incubated for 24 hrs by MTT assay; type: functional, cell-based; conditions: MCF7, 24 h
A549 [15] = experiment: Potency index, ratio of IC50 for Iressa to IC50 for test compound for cytotoxicity in human A549 cells assessed as reduction in cell viability incubated for 24 hrs by MTT assay; type: functional
AGS [16] = experiment: Antiproliferative activity in human AGS cells incubated for 3 days by MTT assay; type: functional, cell-based; conditions: 72 h
Huh-7 = experiment: Cytotoxicity in human HuH7 cells assessed as reduction in cell viability incubated for 72 hrs by cell-titer Glo asay; type: functional, cell-based; conditions: Huh-7, 72 h
HepG2 [17] = experiment: Cytotoxicity in human HepG2 cells assessed as reduction in cell viability incubated for 72 hrs by cell-titer Glo asay; type: functional, cell-based; conditions: HepG2, 72 h
Hep 3B2 = experiment: Cytotoxicity in human Hep3B cells assessed as reduction in cell viability incubated for 72 hrs by cell-titer Glo asay; type: functional, cell-based
BGC-823 = experiment: Cytotoxicity in human BGC823 cells assessed as reduction in cell viability incubated for 48 hrs by MTT assay; type: functional, cell-based; conditions: BGC-823, 48 h
HeLa [18] = experiment: Cytotoxicity in human HeLa cells assessed as reduction in cell viability incubated for 48 hrs by MTT assay; type: functional, cell-based
HepG2 [19] = experiment: Cytotoxicity in human HepG2 cells assessed as reduction in cell viability incubated for 48 hrs by MTT assay; type: functional, cell-based; conditions: HepG2, 48 h

In the case of `COC(=O)[C@]12CCC(C)(C)C[C@H]1C1=CC[C@@H]3[C@@]4(C)C/C(=C/n5ccnc5)C(=O)C(C)(C)[C@@H]4CC[C@@]3(C)[C@]1(C)CC2`, the pIC50 (ASPC1) was over 5.30.
In the case of `CC1(C)CC[C@]2(C(=O)O)CC[C@]3(C)C(=CC[C@@H]4[C@@]5(C)CC[C@H](OC(=O)NS(=O)(=O)c6ccc(F)cc6)C(C)(C)[C@@H]5CC[C@]43C)[C@@H]2C1`, the “inhibition (INH)” value (MDA-MB-231 [1]) was 72.5% and the pIC50 (MDA-MB-231 [2]) was 5.47.
With `COC(=O)[C@]12CCC(C)(C)C[C@H]1C1=CC[C@@H]3[C@@]4(C)C[C@@H](O)[C@H](OS(N)(=O)=O)C(C)(C)[C@@H]4CC[C@@]3(C)[C@]1(C)CC2` the pIC50 (NIH3T3) was 5.66, the pIC50 (HT-29 [3]) was 5.46 and the pIC50 (A549 [4]) was 5.40.
For `COC(=O)[C@]12CC[C@@H](C)[C@H](C)[C@H]1C1=CC(=O)[C@@H]3[C@@]4(C)C(C=O)=C[C@@](C)(CO)[C@@H]4CC[C@@]3(C)[C@]1(C)CC2`, the pIC50 (BJ) was 5.48, the pIC50 (HT-29 [5]) was 6.23 and the pIC50 (HeLa [6]) was 6.52. The pIC50 (MCF7 [7]) was 6.13.
In the case of `C[C@H]1[C@H](C)CC[C@]2(C)CC[C@]3(C)C(=CC(=O)[C@@H]4[C@@]5(C)CC[C@H](OC(=O)/C=C/c6ccccc6)[C@](C)(C(=O)O)[C@@H]5CC[C@]43C)[C@H]12`, the pIC50 (PC-3) was 5.44.
`C[C@H]1[C@H](C)CC[C@]2(C(=O)O)CC[C@]3(C)C(=CC[C@@H]4[C@@]5(C)CC[C@H](O)C(C)(C)[C@@H]5CC[C@]43C)[C@H]12` [URSOLIC ACID] showed a pIC50 [8] of 4.58, a pIC50 (HMEC) of 4.41 and a pIC50 [9] of 4.67. It also gave a GI50 (MCF7 [10]) of 21 µM, a pIC50 (AGS [11]) of 4.36 and a GI50 (MDA-MB-231 [12]) of 11.1 µM.
For `CC1(C)CC[C@]2(C(=O)O)CC[C@]3(C)C(=CC[C@@H]4[C@@]5(C)CC[C@H](O[C@@H]6OC[C@H](O)[C@H](O[C@H]7O[C@H](CO)[C@@H](O)[C@H](O)[C@@H]7O)[C@H]6O)[C@@](C)(CO)[C@@H]5CC[C@]43C)[C@H]2C1`, the pIC50 (A549 [13]) was 5.18, the pIC50 (MCF7 [14]) was 4.71 and the “Ratio IC50” value (A549 [15]) was 4.
In the case of `CC1(C)CC[C@]2(C(=O)O)CC[C@]3(C)C(=CC[C@@H]4[C@@]5(C)CC[C@H](OC(=O)CCc6cn(-c7ccc(Cl)cc7)nn6)C(C)(C)[C@@H]5CC[C@]43C)[C@@H]2C1`, the pIC50 (AGS [16]) was 5.05.
Work on `CC1=C(O)C(=O)C=C2C1=CC=C1[C@@]2(C)CC[C@@]2(C)[C@@H]3C[C@](C)(C(=O)OCc4ccccc4)CC[C@]3(C)CC[C@]12C` yielded a pIC50 (Huh-7) of 5.67, a pIC50 (HepG2 [17]) of 5.37 and a pIC50 (Hep 3B2) of 5.56.
`CC(=O)O/N=C1\CC[C@]2(C)[C@H]3CC=C4[C@@H]5[C@@H](C)[C@H](C)CC[C@]5(C(=O)Nc5ccccc5)CC[C@@]4(C)[C@]3(C)CC[C@H]2C1(C)C` showed a pIC50 (BGC-823) of 5.09, a pIC50 (HeLa [18]) of 5.03 and a pIC50 (HepG2 [19]) of 4.67.
